Measured values as given in patent US5606038A, “Amphiphilic polyene macrolide antibiotic compounds” (Competitive Technologies, Inc., priority 1995, dated 1997).
≈ marks a conversion by molar mass, not a printed value. Where two headings read alike, the source gives them in different places.

Assays:
[1] = hemolysis, 50% release of hemoglobin from human red blood cells; conditions: human, red blood cells
[2] = UV-vis spectroscopy of interaction with ergosterol-containing large unilamellar vesicles; conditions: Example II: 2.6 μM; 1 mM egg phosphatidyl choline and 0.5 mM ergosterol; 20 minutes, 23° C.
Text: In order to confirm that the poly(ethylene glycol)conjugates of the present invention retain their ability to recognize ergosterol-rich bilayers, their interaction with sterol-containing large unilamellar vesicles (1000 A diameter, LUVs) by UV-vis spectroscopy using published techniques [see J. Am. Chem. Soc. 115:708 (1993)]. […] Thus, the poly(ethylene glycol) conjugates according to the present invention recognize ergosterol-rich bilayers in a way that is similar to Amphotericin B.

[3] = test system: Cryptococcus neoformans; assay: minimum inhibitory concentration, Cryptococcus neoformans, broth microdilution; format: cell-based; conditions: 24 h
Procedure: (§1) Microorganism inocula was harvested from one to five day old cultures grown on Sabourand's dextrose agar. After two washes with sterile saline, the inocula were counted utilizing a hemacytometer and diluted or concentrated as required to 1×10^4 blastospores per ml. Sterile molten agar (at 50° C.) was inoculated, allowed to cool, and 10 mm diameter discs impregnated (from […] stock solutions) with each of the test compounds was placed on the surface of the agar. Zones of inhibition were measured after incubating the plates at 30° C. for 24-48 hours.
(§2) The compounds were then screened against three strains of three species of microorganisms: Candida albicans, Cryptococcus neoformans, and Aspergillus fumigatus using a conventional double dilution technique. All tests reported in Table II were done by broth microdilution in yeast nitrogen base-glucose using an inoculum of 1×10^4 blastospores per ml; the cultures were incubated at 37° C. for 24 hours, and the minimum concentration (in μg/ml) that prevents visible growth was recorded as the minimum inhibitory concentration.

[4] = solubility in water; format: physicochemical
[5] = test system: Candida albicans (isolate NIH A); assay: MIC against infecting isolate of Example V; format: cell-based; conditions: 24 and 48 hours
[6] = test system: C. neoformans; assay: second in vivo assay, survival of mice infected with C. neoformans; set-up: species or system C. neoformans in ICR mice; conditions: 5 mg/kg subcutaneous BID
Procedure: (§3) Ten immunocompetent ICR mice weighing 30 g each in two groups were inoculated intravenously with 255 colony forming units of Cryptococcus neoformans (isolate NIH C-1) per mouse.
A second in vivo assay was conducted as in Example VI with the exception that infection was with 488 colony forming units of C. neoformans, and that the test compound was administered 5 mg/kg, subcutaneous, BID.

[7] = test system: Candida albicans (isolate NIH A); assay: survival of mice infected with Candida albicans (Example V); format: in vivo, Candida albicans in ICR mice; conditions: i.p. once per day for ten days, Example II 30 mg/kg, Amphotericin B 1 mg/kg
Text: Ten immunocompetent ICR mice weighing 30 g each in three groups were inoculated intravenously with 3.2×10^6 colony forming units of Candida albicans (isolate NIH A) per mouse.

[8] = test system: Candida albicans; assay: minimum inhibitory concentration, Candida albicans, broth microdilution; format: cell-based; conditions: 24 h, 37° C.
Procedure: ^c minimum inhibitory concentration (see Example IV); three different
strains of Candida albicans were tested; all tests were done in broth
microdilution in yeast nitrogen baseglucose at 37° C. for 24 hours
the initial inoculum was 1 × 10^4 blastospores per ml
The minimum inhibitory concentration reported in Table I was obtained, and further confirmed as reported in Table II, by the methods described in the following Example IV.
as §1, §2

[9] = test system: Cryptococcus neoformans (isolate NIH C-1); assay: survival of mice infected with Cryptococcus neoformans (Example VI); format: in vivo, Cryptococcus neoformans in ICR mice; conditions: 30 mg/kg i.p. once per day
Text: as §3

[10] = critical micelle concentration in PBS by molar absorptivity at 409 nm; format: physicochemical; conditions: PBS (pH 7.4), 37° C.
Text: In its monomeric state, Amphotericin B has a characteristic absorption band at 409 nm; upon aggregation, however, its apparent molar absorptivity decreases in magnitude [see Biochemistry 30:5707 (1991)]. Thus, by measuring its molar absorptivity as a function of the reciprocal of the macrolide concentration, one can estimate the critical micelle concentration. This can be shown mathematically by allowing T, m and P to represent the total, monomeric, and micellar concentrations (i.e. the concentration of the drug that is present in micellar form) of the macrolide, respectively, and if ε represents the apparent molar absorptivity and εm and εp are the molar absorptivity for the monomeric and micellar components, respectively, then it can be shown that ε=εp +(εm -εp)m/T. At concentrations in excess of the critical micelle concentration, m is a constant and ε is inversely proportional to T.
Using the method described previously, the critical micelle concentrations for Amphotericin B and the conjugates described in the preceding examples were determined and are reported in Table I describing the aggregation, antifungal and hemolytic properties of […] macrolide antibiotics (in μM amounts) according to the present invention.
^a critical micelle concentration was determined in PBS (pH 7.4) at […]

[11] = test system: Cryptococcus neoformans (isolate NIH C-1); assay: MIC against infecting isolate of Example VI; format: cell-based

In the case of `COCCOCCOCCOCCOCCOCCNC(=O)[C@H]1[C@@H]2C[C@@H](O[C@@H]3O[C@H](C)[C@@H](O)[C@H](N)[C@@H]3O)/C=C/C=C/C=C/C=C/C=C/C=C/C=C/[C@H](C)[C@@H](O)[C@@H](C)[C@H](C)OC(=O)C[C@H](O)C[C@H](O)CC[C@@H](O)[C@H](O)C[C@H](O)C[C@](O)(C[C@@H]1O)O2` [Example II], the HC50 at 1 h [1] is reported as 42 µM, the “absorption spectrum change with ergosterol-containing vesicles” value [2] is reported as “strong diminution in the monomer band at 409 nm and new bands at 415, 390 and 375 nm” and the MIC ([3]; C. neoformans (1), 37° C., read-out: minimum inhibitory concentration) is reported as 3.2 µg/mL (≈ 2.66 µM). It also gave an MIC ([3]; C. neoformans (2), 37° C., read-out: minimum inhibitory concentration) of 3.2 µg/mL (≈ 2.66 µM), an MIC ([3]; read-out: minimum inhibitory concentration, C. neofornams (3), 37° C.) of 3.2 µg/mL (≈ 2.66 µM) and a solubility [4] of at least 10000 µg/mL. It also gave an MIC ([5]; in DMSO and water) of 3.03 µg/mL (≈ 2.52 µM), an MIC ([5]; in water only) of at most 6.06 µg/mL and a percent survival ([6]; day 11 post-infection) of 100%. It also gave a percent survival ([6]; day 12 post-infection) of 80%, a percent survival ([6]; day 13 post-infection) of 60% and a percent survival ([6]; day 14 post-infection) of 60%. It also gave a percent survival ([6]; day 15 post-infection) of 60%, a percent survival ([6]; day 16 post-infection) of 60% and a percent survival ([6]; day 17 post-infection) of 60%. The percent survival ([6]; day 19 post-infection) was 60%, the percent survival ([6]; day 20 post-infection) was 60% and the percent survival ([6]; day 21 post-infection) was 60%. The percent survival ([6]; day 22 post-infection) was 60%, the percent survival ([6]; day 23 post-infection) was 40% and the percent survival ([6]; day 24 post-infection) was 20%. For the same compound, the percent survival ([6]; day 27 post-infection) was 20%, the percent survival ([6]; day 28 post-infection) was 10% and the percent survival ([6]; day 29 post-infection) was 10%. The percent survival ([6]; day 30 post-infection) was 0%, the percent survival ([7]; day 2 post-infection) was 100% and the percent survival ([7]; day 3 post-infection) was 100%. For the same compound, the percent survival ([7]; day 4 post-infection) was 100%, the percent survival ([7]; day 5 post-infection) was 100% and the percent survival ([7]; day 6 post-infection) was 100%. For the same compound, the percent survival ([7]; day 7 post-infection) was 90%, the percent survival ([7]; day 30 post-infection) was 90% and the MIC ([8]; C. albicans (1), read-out: minimum inhibitory concentration) was 6.4 µg/mL. The MIC ([8]; C. albicans (2), read-out: minimum inhibitory concentration) was 3.2 µg/mL, the MIC ([8]; C. albicans (3), read-out: minimum inhibitory concentration) was 3.2 µg/mL and the MIC ([8]; three strains of Candida albicans, yeast nitrogen base-glucose, 1 × 10^4 blastospores per ml, read-out: MIC (minimum inhibitory concentration)) was 2.7 µM. For the same compound, the percent survival ([9]; day 9 post-infection) was 100%, the percent survival ([9]; day 10 post-infection) was 100% and the percent survival ([9]; day 13 post-infection) was 100%. It also gave a percent survival ([9]; day 14 post-infection) of 90%, a percent survival ([9]; day 15 post-infection) of 90% and a percent survival ([9]; day 16 post-infection) of 90%. It also gave a percent survival ([9]; day 17 post-infection) of 90%, a percent survival ([9]; day 18 post-infection) of 90% and a percent survival ([9]; day 19 post-infection) of 90%. It also gave a percent survival ([9]; day 20 post-infection) of 90%, a percent survival ([9]; day 21 post-infection) of 90% and a percent survival ([9]; day 22 post-infection) of 70%. It also gave a percent survival ([9]; day 25 post-infection) of 70%, a percent survival ([9]; day 26 post-infection) of 60% and a percent survival ([9]; day 27 post-infection) of 60%. For the same compound, the percent survival ([9]; day 28 post-infection) was 50%, the percent survival ([9]; day 29 post-infection) was 50% and the percent survival ([9]; day 30 post-infection) was 40%. For the same compound, the “cmc (critical micelle concentration)” value [10] was 25 µM, the MIC [11] was at most 6.06 µg/mL and the MIC ([11]; 48 h) was 1.51 µg/mL (≈ 1.26 µM). For the same compound, the MIC ([11]; 72 h) was 3.03 µg/mL (≈ 2.52 µM).
